Read-outs that look alike come from different tables or passages of the source.
What was measured:
[1] = system: LPS-induced pulmonary inflammation; assay: LPS-induced pulmonary inflammation in mice, first study (QD×3); type: in vivo, mouse
Procedure: Animals were sacrificed 20 hours after LPS administration. BALF was examined for pro-inflammatory cytokine expression.

[2] = mouse tissue distribution, 25 mg/kg PO QD×3
[3] = system: RANKL-induced TRAP activity and formation of osteoclasts; assay: RANKL-induced osteoclastogenesis in RAW264.7; type: cell-based; conditions: Mus musculus, Osteoclast; 2 h pretreatment, 50 ng/mL RANKL
Excerpt: Osteoclastogenesis is a multi-step differentiation process that results from the binding of RANKL to its receptor, RANK, on cells of hematopoietic origin.

[4] = system: fractionated radiation dermatitis; assay: fractionated radiation dermatitis model, Balb/c mice; type: in vivo, mouse; conditions: 0.1 to 1% topical formulations
Procedure: The mice were irradiated on days 0-2 and 5-7 with six 10-Gy doses […]. Clinical dermatitis scores for the mice were evaluated blindly every two days from day 4 until the end of the study. […] Study and treatment parameters can be found in Table 6.
By analyzing the average clinical scores that were shown in FIG. 43, an area under the curve (AUC) analysis was performed, which yielded the severity of the dermatitis relative to how long the dermatitis persisted.

phosphorylation of IκBα = assay: TNFα-induced phosphorylation of IκBα in HeLa cells (Western blot); type: cell-based, human; conditions: 6 h pretreatment, TNFα 20 ng/mL 5 min
Procedure: Total and phosphorylated levels of IκBα were evaluated by Western blot.

H6PD, PGD, TKT, ME1 mRNA = assay: expression of genes involved in NADPH synthesis, HCT-116 cells; type: cell-based; conditions: 24 hours
cynomolgus monkeys = conditions: for ALP (U/L) / ALT (U/L) / AST (U/L) / Albumin / BUN / Chol / Cr / Glucose / TG / Tot Bil / Tot Prot: Day 14
[5] = system: acute radiation dermatitis; assay: acute radiation dermatitis model, BALB/c mice; type: in vivo, mouse
Procedure: Using male BALB/c mice, a 30 Gy dose of radiation was administered on day 0 (Table 3). […] The remaining mice were sacrificed on day 30 at 4 hours postdose. Plasma was collected on days 12 and 30 as well as irradiated skin samples for mRNA and histological examination. [table]

[6] = system: bleomycin-induced pulmonary fibrosis
MRP-1 = MRP-1 (Homo sapiens, UniProt P33527); assay: in vitro efflux by MRP-1; conditions: not told
Chain of MRP-1 (P33527 whole entry): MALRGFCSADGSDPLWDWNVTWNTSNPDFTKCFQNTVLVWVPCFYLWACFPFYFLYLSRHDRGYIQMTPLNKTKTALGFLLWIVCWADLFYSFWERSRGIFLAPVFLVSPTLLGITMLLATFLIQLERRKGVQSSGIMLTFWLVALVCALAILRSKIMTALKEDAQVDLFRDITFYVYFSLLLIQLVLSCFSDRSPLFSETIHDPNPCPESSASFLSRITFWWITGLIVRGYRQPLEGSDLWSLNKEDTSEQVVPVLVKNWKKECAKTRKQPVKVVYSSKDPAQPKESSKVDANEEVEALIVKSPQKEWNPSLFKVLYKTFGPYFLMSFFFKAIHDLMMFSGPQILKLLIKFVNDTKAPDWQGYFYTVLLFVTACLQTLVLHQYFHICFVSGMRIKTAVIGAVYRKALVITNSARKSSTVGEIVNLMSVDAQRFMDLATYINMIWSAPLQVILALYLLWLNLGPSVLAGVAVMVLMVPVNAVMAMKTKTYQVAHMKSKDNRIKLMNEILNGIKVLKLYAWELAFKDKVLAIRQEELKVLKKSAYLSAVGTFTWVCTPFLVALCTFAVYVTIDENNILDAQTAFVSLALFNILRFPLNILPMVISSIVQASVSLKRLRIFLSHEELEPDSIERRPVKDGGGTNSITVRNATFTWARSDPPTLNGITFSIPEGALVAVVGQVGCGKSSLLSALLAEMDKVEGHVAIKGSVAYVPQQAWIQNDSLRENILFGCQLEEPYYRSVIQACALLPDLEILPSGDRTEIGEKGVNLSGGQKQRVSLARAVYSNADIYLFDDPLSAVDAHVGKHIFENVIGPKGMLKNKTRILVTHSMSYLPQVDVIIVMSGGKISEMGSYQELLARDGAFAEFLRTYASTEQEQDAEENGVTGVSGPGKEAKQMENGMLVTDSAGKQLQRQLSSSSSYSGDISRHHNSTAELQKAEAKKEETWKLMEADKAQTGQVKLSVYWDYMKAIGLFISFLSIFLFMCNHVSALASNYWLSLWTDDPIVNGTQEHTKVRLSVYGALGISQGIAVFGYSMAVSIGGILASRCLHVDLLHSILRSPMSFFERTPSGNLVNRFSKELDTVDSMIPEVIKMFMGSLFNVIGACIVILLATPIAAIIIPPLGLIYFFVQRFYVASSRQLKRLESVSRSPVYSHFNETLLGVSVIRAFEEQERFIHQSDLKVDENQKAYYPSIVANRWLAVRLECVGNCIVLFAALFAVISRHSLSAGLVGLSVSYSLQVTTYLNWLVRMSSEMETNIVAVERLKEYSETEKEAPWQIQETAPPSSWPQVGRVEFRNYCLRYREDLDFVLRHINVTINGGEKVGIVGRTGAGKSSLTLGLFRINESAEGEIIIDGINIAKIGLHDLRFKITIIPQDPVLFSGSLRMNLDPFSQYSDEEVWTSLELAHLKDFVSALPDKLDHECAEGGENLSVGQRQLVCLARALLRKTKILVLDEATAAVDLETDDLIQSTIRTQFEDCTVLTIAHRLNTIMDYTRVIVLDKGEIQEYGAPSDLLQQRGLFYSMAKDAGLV

CC1(C)CC[C@]2(NC(=O)C(C)(F)F)CC[C@]3(C)[C@H](C(=O)C=C4[C@@]5(C)C=C(C#N)C(=O)C(C)(C)[C@@H]5CC[C@]43C)[C@@H]2C1 [RTA 408, N-((4aS,6aR,6bS,8aR,12aS,14aR,14bS)-11-cyano-2,2,6a,6b,9,9,12a-heptamethyl-10,14-dioxo-1,2,3,4,4a,5,6,6a,6b,7,8,8a,9,10,12a,14,14a,14b-octadecahydropicen-4a-yl)-2,2-difluoropropanamide]
TNFα in BALF ([1]; 100 and 150 mg/kg doses): significant reduction | IL-12p40 in BALF ([1]; all doses (30, 100, 150 mg/kg)): significant reduction | levels in the CNS [2]: Notable levels were observed in the CNS | IC50 [3]: 5 to 10 nM | average clinical dermatitis scores over time [4]: statistically significant improvement in the scores | TNFα-induced phosphorylation of IκBα (phosphorylation of IκBα): inhibited TNFα-induced phosphorylation of IκBα in a dose-dependent manner | mRNA levels of H6PD, PGD, TKT, ME1 (H6PD, PGD, TKT, ME1 mRNA): dose-dependent increase in expression of genes involved in NADPH synthesis | ALP (U/L) (cynomolgus monkeys; 10 mg/kg): 382 U/L | ALT (U/L) (cynomolgus monkeys; 10 mg/kg): 46 U/L | AST (U/L) (cynomolgus monkeys; 10 mg/kg): 38 U/L | Albumin (cynomolgus monkeys; 10 mg/kg): 4 g/dL | BUN (cynomolgus monkeys; 10 mg/kg): 27 mg/dL | Chol (cynomolgus monkeys; 10 mg/kg): 144 mg/dL | Cr (cynomolgus monkeys; 10 mg/kg): 0.68 mg/dL | Glucose (cynomolgus monkeys; 10 mg/kg): 39 mg/dL | TG (cynomolgus monkeys; 10 mg/kg): 82 mg/dL | Tot Bil (cynomolgus monkeys; 10 mg/kg): 0.23 mg/dL | Tot Prot (cynomolgus monkeys; 10 mg/kg): 7.2 g/dL | ALP (U/L) (cynomolgus monkeys; 30 mg/kg): 416 U/L | ALT (U/L) (cynomolgus monkeys; 30 mg/kg): 47 U/L | AST (U/L) (cynomolgus monkeys; 30 mg/kg): 43 U/L | Albumin (cynomolgus monkeys; 30 mg/kg): 4 g/dL | BUN (cynomolgus monkeys; 30 mg/kg): 20 mg/dL | Chol (cynomolgus monkeys; 30 mg/kg): 122 mg/dL | Cr (cynomolgus monkeys; 30 mg/kg): 0.58 mg/dL | Glucose (cynomolgus monkeys; 30 mg/kg): 53 mg/dL | TG (cynomolgus monkeys; 30 mg/kg): 64 mg/dL | Tot Bil (cynomolgus monkeys; 30 mg/kg): 0.2 mg/dL | Tot Prot (cynomolgus monkeys; 30 mg/kg): 7.2 g/dL | ALP (U/L) (cynomolgus monkeys; 100 mg/kg): 390 U/L | ALT (U/L) (cynomolgus monkeys; 100 mg/kg): 43 U/L | AST (U/L) (cynomolgus monkeys; 100 mg/kg): 37 U/L | Albumin (cynomolgus monkeys; 100 mg/kg): 3.2 g/dL | BUN (cynomolgus monkeys; 100 mg/kg): 24 mg/dL | Chol (cynomolgus monkeys; 100 mg/kg): 93 mg/dL | Cr (cynomolgus monkeys; 100 mg/kg): 0.55 mg/dL | Glucose (cynomolgus monkeys; 100 mg/kg): 32 mg/dL | TG (cynomolgus monkeys; 100 mg/kg): 61 mg/dL | Tot Bil (cynomolgus monkeys; 100 mg/kg): 0.18 mg/dL | Tot Prot (cynomolgus monkeys; 100 mg/kg): 6 g/dL | toxicity suggested by clinical chemistry data (cynomolgus monkeys; 14 days): no obvious toxicity | mRNAs of Nrf2 target genes in liver and lung (cynomolgus monkeys; PO QD×14): induces Nrf2 target genes in monkey tissues | tolerability (cynomolgus monkeys; all doses, 14 days): well-tolerated without adverse clinical signs | Nrf2 target enzyme activity (NQO1, GSR) in various tissues (cynomolgus monkeys; monkey, in vivo): induces Nrf2 target enzyme activity | percentage of mice with dermatitis clinical score above 3 ([5]; oral administration): significantly lower | Percentage of mice which scored above 2 in clinical dermatitis exam ([5]; topical 0.01%, Day 12): 0.0% | Percentage of mice which scored above 2 in clinical dermatitis exam ([5]; topical 0.01%, Day 14): 0.0% | Percentage of mice which scored above 2 in clinical dermatitis exam ([5]; topical 0.01%, Day 16): 20.0% | Percentage of mice which scored above 2 in clinical dermatitis exam ([5]; topical 0.01%, Day 18): 50.0% | Percentage of mice which scored above 2 in clinical dermatitis exam ([5]; topical 0.01%, Day 20): 10.0% | Percentage of mice which scored above 2 in clinical dermatitis exam ([5]; topical 0.01%, Day 22): 40.0% | Percentage of mice which scored above 2 in clinical dermatitis exam ([5]; topical 0.01%, Day 24): 40.0% | Percentage of mice which scored above 2 in clinical dermatitis exam ([5]; topical 0.01%, Day 26): 40.0% | Percentage of mice which scored above 2 in clinical dermatitis exam ([5]; topical 0.01%, Day 28): 20.0% | Percentage of mice which scored above 2 in clinical dermatitis exam ([5]; topical 0.01%, Day 30): 10.0% | Percentage of mice which scored above 2 in clinical dermatitis exam ([5]; topical 0.1%, Day 12): 7.1% | Percentage of mice which scored above 2 in clinical dermatitis exam ([5]; topical 0.1%, Day 14): 10.0% | Percentage of mice which scored above 2 in clinical dermatitis exam ([5]; topical 0.1%, Day 16): 20.0% | Percentage of mice which scored above 2 in clinical dermatitis exam ([5]; topical 0.1%, Day 18): 80.0% | Percentage of mice which scored above 2 in clinical dermatitis exam ([5]; topical 0.1%, Day 20): 60.0% | Percentage of mice which scored above 2 in clinical dermatitis exam ([5]; topical 0.1%, Day 22): 40.0% | Percentage of mice which scored above 2 in clinical dermatitis exam ([5]; topical 0.1%, Day 24): 30.0% | Percentage of mice which scored above 2 in clinical dermatitis exam ([5]; topical 0.1%, Day 26): 10.0% | Percentage of mice which scored above 2 in clinical dermatitis exam ([5]; topical 0.1%, Day 28): 0.0% | Percentage of mice which scored above 2 in clinical dermatitis exam ([5]; topical 0.1%, Day 30): 0.0% | Percentage of mice which scored above 2 in clinical dermatitis exam ([5]; topical 1.0%, Day 14): 20.0% | Percentage of mice which scored above 2 in clinical dermatitis exam ([5]; topical 1.0%, Day 16): 10.0% | Percentage of mice which scored above 2 in clinical dermatitis exam ([5]; topical 1.0%, Day 18): 70.0% | Percentage of mice which scored above 2 in clinical dermatitis exam ([5]; topical 1.0%, Day 20): 30.0% | Percentage of mice which scored above 2 in clinical dermatitis exam ([5]; topical 1.0%, Day 22): 10.0% | Percentage of mice which scored above 2 in clinical dermatitis exam ([5]; topical 1.0%, Day 24): 0.0% | Percentage of mice which scored above 2 in clinical dermatitis exam ([5]; topical 1.0%, Day 26): 0.0% | Percentage of mice which scored above 2 in clinical dermatitis exam ([5]; topical 1.0%, Day 28): 0.0% | Percentage of mice which scored above 2 in clinical dermatitis exam ([5]; topical 1.0%, Day 30): 0.0% | percentage of mice with dermatitis clinical score above 2 ([5]; topical administration): slightly lower | tolerability finding that stopped dosing on day 14 ([6]; 30 mg/kg): excessive dehydration and diarrhea | polymorphonuclear (PMN) cell infiltration into the lungs ([6]; 3 and 10 mg/kg, 28 days): significantly suppressed | collagen deposition (trichrome staining) ([6]; rat, in vivo): significant decrease in collagen deposition | NQO1, Txnrd, Gsr, and Gst enzyme activity in lungs ([6]; rats exposed to bleomycin): significantly and dose-dependently increased | MRP-1 substrate status (MRP-1): not a substrate of MRP-1

— US11873320B2 (REATA PHARMACEUTICALS HOLDINGS, LLC, priority 2013, dated 2024)
